According to patent publication US7485434B2, “Method for screening compounds for those that modulate transducers of regulated CREB activity” (The Salk Institute for Biological Studies, priority 2005, dated 2009):

How the values were obtained:
[1] = tested on: gluconeogenic genes (PEPCK, PGC-1α, G6Pase); test: Q-PCR of gluconeogenic gene expression in primary rat hepatocytes; format: cell-based; conditions: primary hepatocytes
Description: Specifically, FIG. 17A illustrates the effect of TORC2 on induction of gluconeogenic genes (PEPCK, PGC-1α, G6Pase) by FSK (10 μM, 2 hr) in cultured primary rat hepatocytes infected with TORC2 or control GFP adenovinus as indicated.
FIGS. 18A-18H illustrate that the induction of the AMP kinase family member SIK1 by CREB during fasting attenuates the gluconeogenic program. Specifically, FIG. 18A illustrates the time course of PEPCK gene expression in primary rat hepatocytes following exposure to FSK. mRNA levels were determined by Q-PCR analysis.
FIG. 18C illustrates the effect of CHX pretreatment on induction of gluconeogenic genes (PEPCK, PGC-1α, G6Pase) by glucagon in primary rat hepatocytes. Relative mRNA levels are shown.
FIG. 19B summarizes the effect of SIK1 RNAi on gluconeogenic gene expression in primary rat hepatocytes, presenting Q-PCR analysis showing the relative induction of PEPCK, PGC-1α, and G6Pase mRNAs by glucagon in cells infected with control (US) or SIK1 RNAi expressing adenoviruses.
FIG. 20D summarizes the effect of AlCAR on expression of gluconeogenic genes (PEPCK, PGC-1α) in primary rat hepatocytes. Cells infected with mutant Ser171Ala TORC2 (171) adenovinus indicated. Treatment with AICAR and FSK is shown.
Rat primary hepatocytes were prepared from 200-300g of Sprague-Dawley rats by collagenase perfusion method as described previously (see Koo et al., 2004). […]

TORC2 [2] = test: TORC2 phosphorylation in primary rat hepatocytes (Western blot); format: cell-based; conditions: primary hepatocytes; AICAR 1 mM, in the presence of FSK, 30 minutes
From the text: FIG. 18B illustrates the effect of CHX on levels of phospho (Ser171) TORC2 in primary rat hepatocytes treated with glucagon over a variety of time points, shown in hours. Western blot assay indicates the levels of TORC2, phospho (Ser171) TORC2 and CREB.
Specifically, FIG. 19A, top, presents a Western blot showing the effect of US and SIK1 RNAi adenoviruses on the levels of SIK1 protein in rat hepatocytes. FIG. 19A, bottom, presents a Western blot assay with nondiscriminating TORC2 antiserum, showing the effect of SIK1 RNAi adenovirus on TORC2 dephosphorylation (compare P-TORC2 and TORC2 bands) following exposure of primary rat hepatocytes to glucagon (Gluc). The arrow identifies phosphorylated TORC2.
Cells were exposed to AICAR and FSK for 30 minutes. Lower mobility bands (arrow) indicate phosphorylated TORC2 polypeptides.
Rat primary hepatocytes were prepared from 200-300g of Sprague-Dawley rats by collagenase perfusion method as described previously (see Koo et al., 2004). 1×10^6 cells were plated in 6 well plates with medium 199 (Invitrogen, Carlsbad, Calif.) supplemented by 10% FBS, 10 units/ml penicillin, 10 μg/ml streptomycin, and 10 nM dexamethasone for 3-6 hours. After attachment, cells were infected with adenoviruses for 16 hours. Subsequently, cells were maintained in medium 199 without FBS and dexamethasone for 24 hours (for cDNA expression adenoviruses) or 48 hours (for RNAi adenoviruses) and […] forskolin or 100 nM glucagon for 2 hours unless noted otherwise. For experiments with cycloheximide, 10 μg/ml cycloheximide was added 30 minutes prior to the addition of 100 nM glucagon.
Like other signaling pathways, cAMP stimulates gluconeogenic gene expression with burst-attenuation kinetics (see Sasaki et al., 1984). Following exposure of primary hepatocytes to Forskolin, PEPCK mRNA levels became maximal after 2 hours, returning to near baseline after 4 hours (see FIG. 18A). […] Consistent with this, CHX pre-treatment potentiated gluconeogenic gene expression in primary rat hepatocytes exposed to glucagon 2-3 fold (see FIG. 18C). […]

TORC2 [3] = test: Cellular localization of TORC2 in primary rat hepatocytes; format: cell-based; conditions: wild-type or Ser171Ala TORC2
Description: FIG. 20C illustrate the effect of AICAR and SIK1 on cellular localization of wild-type or Ser171 Ala TORC2 in primary rat hepatocytes. Cells were infected with adenoviruses for HA-tagged wild-type or mutant TORC2 and SIK1 as indicated. Infected cells were exposed to FSK and AICAR for 30 minutes. TORC2 localization was examined with anti-HA antiserum. Cells were counterstained with DAP1 to visualize nuclei.
Based on its ability to promote Ser171 phosphorylation, AMPK might be expected to inhibit nuclear entry of TORC2 in cells exposed to FSK. […] Confirming the pivotal role of Ser171 in this regard, mutant Ser171Ala TORC2 remained constitutively nuclear under both conditions.

AMPK = conditions: cited from earlier work

Structure (SMILES)	effect on induction of PEPCK and PGC-1α genes in response to FSK [1]	phosphorylation of endogenous TORC2 (TORC2 [2])	effect on nuclear entry of TORC2 in cells exposed to FSK (TORC2 [3])	effect on AMPK (AMPK)
NC(=O)c1ncn([C@@H]2O[C@H](CO)[C@@H](O)[C@H]2O)c1N [AICAR, 5-aminoimidazole-4-carboxamide riboside]	blocked induction of PEPCK and PGC-1α genes	triggered robust phosphorylation of endogenous TORC2	inhibited nuclear entry of wild-type, but not SerAla171 TORC2	–
CN(C)C(=N)N=C(N)N [metformin]	–	–	–	activates AMPK
